From patent US10435399B2, “HDAC6 inhibitory heterocyclic compound” (TAKEDA PHARMACEUTICAL COMPANY LIMITED, priority 2017, dated 2019)

Biological target: T1, HDAC6 enzyme (Homo sapiens, UniProt Q9UBN7)
T1 construct: transducing full length HDAC6 gene into Sf-9 insect cells; GST; purchased SignalChem; host or cells: Sf-9 insect cells
T1 sequence (Q9UBN7 1-1215): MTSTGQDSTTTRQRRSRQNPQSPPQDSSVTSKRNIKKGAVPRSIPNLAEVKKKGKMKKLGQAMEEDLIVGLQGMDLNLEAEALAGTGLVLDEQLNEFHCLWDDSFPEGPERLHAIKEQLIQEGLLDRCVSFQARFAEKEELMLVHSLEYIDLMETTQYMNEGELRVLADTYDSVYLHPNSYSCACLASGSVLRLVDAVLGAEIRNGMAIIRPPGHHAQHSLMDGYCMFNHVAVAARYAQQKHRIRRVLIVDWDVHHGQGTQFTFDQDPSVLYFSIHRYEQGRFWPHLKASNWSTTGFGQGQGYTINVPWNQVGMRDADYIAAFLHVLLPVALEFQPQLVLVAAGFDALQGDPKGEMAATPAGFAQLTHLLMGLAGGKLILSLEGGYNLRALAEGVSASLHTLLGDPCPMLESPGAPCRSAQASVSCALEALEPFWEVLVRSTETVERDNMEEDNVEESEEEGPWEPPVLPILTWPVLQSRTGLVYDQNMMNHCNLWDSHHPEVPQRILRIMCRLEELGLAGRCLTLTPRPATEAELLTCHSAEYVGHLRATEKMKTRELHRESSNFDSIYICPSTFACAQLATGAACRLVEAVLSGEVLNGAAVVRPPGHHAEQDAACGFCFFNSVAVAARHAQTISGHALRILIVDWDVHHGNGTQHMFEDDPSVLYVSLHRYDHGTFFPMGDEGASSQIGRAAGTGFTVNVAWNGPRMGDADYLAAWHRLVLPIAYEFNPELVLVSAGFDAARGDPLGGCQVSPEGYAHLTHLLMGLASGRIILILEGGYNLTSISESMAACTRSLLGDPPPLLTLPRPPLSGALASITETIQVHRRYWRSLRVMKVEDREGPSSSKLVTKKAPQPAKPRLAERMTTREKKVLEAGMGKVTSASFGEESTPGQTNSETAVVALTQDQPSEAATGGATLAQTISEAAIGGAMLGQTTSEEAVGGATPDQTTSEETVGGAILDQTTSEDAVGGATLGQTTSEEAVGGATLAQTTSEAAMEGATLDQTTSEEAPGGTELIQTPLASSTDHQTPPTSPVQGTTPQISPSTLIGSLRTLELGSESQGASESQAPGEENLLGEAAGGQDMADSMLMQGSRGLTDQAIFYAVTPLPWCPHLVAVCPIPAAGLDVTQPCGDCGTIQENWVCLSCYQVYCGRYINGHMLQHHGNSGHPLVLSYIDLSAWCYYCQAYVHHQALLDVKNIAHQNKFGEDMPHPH
Experiment: HDAC6 enzyme inhibitory activity (HDAC-Glo I/II Assay kit)
Assay type: biochemical
Conditions: 10 μM; wells without enzyme = 100% inhibition; read-out: HDAC6 inhibitory rate (%) (10 μM)
How it was run: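 Full-length human HDAC6 (GST-purified, Sf-9 expressed) preincubated with compound 60 min at room temperature in Tris-HCl pH 7.5 buffer with MgCl2, KCl, NaCl, glutathione, Tween-20. HDAC-Glo I/II substrate-developer then added, 20 min room temperature, luminescence read. Inhibition relative to no-enzyme wells as 100%.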

Row | Compound | inhibition at 10 µM [%]
1 | CCC(=O)N[C@@H]1CCCC[C@H]1N1Cc2ncc(-c3nnc(C(F)F)o3)cc2C1=O [Example 461, N-((1R,2R)-2-(3-(5-(difluoro-methyl)-1,3,4-oxadiazol-2-yl)-5-oxo-5,7-dihydro-6H-pyrrolo[3,4-b]pyridin-6-yl)cyclohexyl) propanamide] | 100
2 | CCCC(=O)N[C@@H]1CCCC[C@H]1N1Cc2ncc(-c3nnc(C(F)F)o3)cc2C1=O [Example 462, N-((1R,2R)-2-(3-(5-(difluoro-methyl)-1,3,4-oxadiazol-2-yl)-5-oxo-5,7-dihydro-6H-pyrrolo[3,4-b]pyridin-6-yl)cyclohexyl) butanamide] | 100
3 | O=C(N[C@@H]1CCCC[C@H]1N1Cc2ncc(-c3nnc(C(F)F)o3)cc2C1=O)C1CC1 [Example 463, N-((1R,2R)-2-(3-(5-(difluoro-methyl)-1,3,4-oxadiazol-2-yl)-5-oxo-5,7-dihydro-6H-pyrrolo[3,4-b]pyridin-6-yl)cyclohexyl) cyclopropane-carboxamide] | 101
4 | O=C(N[C@@H]1CCCC[C@H]1N1Cc2ncc(-c3nnc(C(F)F)o3)cc2C1=O)C1CCC1 [Example 464, N-((1R,2R)-2-(3-(5-(difluoro-methyl)-1,3,4-oxadiazol-2-yl)-5-oxo-5,7-dihydro-6H-pyrrolo[3,4-b]pyridin-6-yl)cyclohexyl) cyclobutane-carboxamide] | 101
5 | O=C(N[C@@H]1CCCC[C@H]1N1Cc2ncc(-c3nnc(C(F)F)o3)cc2C1=O)c1ccccc1 [Example 465, N-((1R,2R)-2-(3-(5-(difluoro-methyl)-1,3,4-oxadiazol-2-yl)-5-oxo-5,7-dihydro-6H-pyrrolo[3,4-b]pyridin-6-yl)cyclohexyl) benzamide] | 99
6 | O=C(Cc1ccccc1)N[C@@H]1CCCC[C@H]1N1Cc2ncc(-c3nnc(C(F)F)o3)cc2C1=O [Example 466, N-((1R,2R)-2-(3-(5-(difluoro-methyl)-1,3,4-oxadiazol-2-yl)-5-oxo-5,7-dihydro-6H-pyrrolo[3,4-b]pyridin-6-yl)cyclohexyl)-2-phenyl-acetamide] | 100
7 | O=C1c2cc(-c3nnc(C(F)F)o3)ccc2CN1c1ccc(F)cc1-c1ccn[nH]1 [Example 467, 6-(5-(difluoro-methyl)-1,3,4-oxadiazol-2-yl)-2-(4-fluoro-2-(1H-pyrazol-5-yl)phenyl) isoindolin-1-one] | 101
8 | O=C1c2cc(-c3nnc(C(F)F)o3)ccc2CN1[C@@H]1CCC(F)(F)C[C@H]1NC(=O)C(F)(F)C(F)(F)F [Example 469, N-((1R,2R)-2-(6-(5-(difluoromethyl)-1,3,4-oxadiazol-2-yl)-1-oxo-1,3-dihydro-2H-isoindol-2-yl)-5,5-difluorocyclohexyl)-2,2,3,3,3-pentafluoropropanamide] | 99
9 | O=C1c2cc(-c3nnc(C(F)F)o3)ccc2CN1c1ccnn1-c1cccc(Cl)c1 [Example 472, 2-(1-(3-chloro-phenyl)-1H-pyrazol-5-yl)-6-(5-(difluoro-methyl)-1,3,4-oxadiazol-2-yl) isoindolin-1-one] | 100
10 | C[C@@H](c1ccccc1)N1Cc2ncc(-c3nnc(C(F)F)o3)cc2C1=O [Example 475, 3-(5-(difluoro-methyl)-1,3,4-oxadiazol-2-yl)-6-((1S)-1-phenylethyl)-6,7-dihydro-5H-pyrrolo [3,4-b]pyridin-5-one] | 100
11 | C[C@H](c1ccccc1)N1Cc2ncc(-c3nnc(C(F)F)o3)cc2C1=O [Example 476, 3-(5-(difluoro-methyl)-1,3,4-oxadiazol-2-yl)-6-((1R)-1-phenylethyl)-6,7-dihydro-5H-pyrrolo [3,4-b]pyridin-5-one] | 100
12 | O=C1c2cc(-c3nnc(C(F)F)o3)cnc2CN1Cc1ccccc1OCC(F)F [Example 478, 6-(2-(2,2-difluoroethoxy)benzyl)-3-(5-(difluoro-methyl)-1,3,4-oxadiazol-2-yl)-6,7-dihydro-5H-pyrrolo [3,4-b]pyridin-5-one] | 100
13 | O=C1c2cc(-c3nnc(C(F)F)o3)cnc2CN1Cc1cccc(-c2cnn(C(F)F)c2)c1 [Example 479, 3-(5-(difluoro-methyl)-1,3,4-oxadiazol-2-yl)-6-(3-(1-(difluoro-methyl)-1H-pyrazol-4-yl)benzyl)-6,7-dihydro-5H-pyrrolo[3,4-b] pyridin-5-one] | 100
14 | O=C1c2cc(-c3nnc(C(F)F)o3)ccc2CN1c1ccc(F)cc1-n1cc(Br)cn1 [Example 482, 2-(2-(4-bromo-1H-pyrazol-1-yl)-4-fluoro-phenyl)-6-(5-(difluoro-methyl)-1,3,4-oxadiazol-2-yl) isoindolin-1-one] | 100
15 | O=C1c2cc(-c3nnc(C(F)F)o3)ccc2CN1c1ccc(OC(F)(F)F)cc1Br [Example 483, 2-(2-bromo-4-(trifluoro-methoxy)phenyl)-6-(5-(difluoro-methyl)-1,3,4-oxadiazol-2-yl) isoindolin-1-one] | 91

Continued, values first:

Row | inhibition at 10 µM [%] | Compound
16 | 97 | Cn1cc(-c2cncc(F)c2)c(N2Cc3ccc(-c4nnc(C(F)F)o4)cc3C2=O)n1 [Example 459, 6-(5-(difluoro-methyl)-1,3,4-oxadiazol-2-yl)-2-(4-(5-fluoro-pyridin-3-yl)-1-methyl-1H-pyrazol-3-yl) isoindolin-1-one]
17 | 102 | Cn1cc(-c2ccccc2F)c(N2Cc3ccc(-c4nnc(C(F)F)o4)cc3C2=O)n1 [Example 460, 6-(5-(difluoro-methyl)-1,3,4-oxadiazol-2-yl)-2-(4-(2-fluoro-phenyl)-1-methyl-1H-pyrazol-3-yl) isoindolin-1-one]
18 | 100 | Cn1cc(-c2cc(F)cc(C#N)c2)c(N2Cc3ccc(-c4nnc(C(F)F)o4)cc3C2=O)n1 [Example 468, 3-(3-(6-(5-(difluoro-methyl)-1,3,4-oxadiazol-2-yl)-1-oxo-1,3-dihydro-2H-isoindol-2-yl)-1-methyl-1H-pyrazol-4-yl)-5-fluoro-benzonitrile]
19 | 101 | CC(F)(F)C(=O)N[C@@H]1CC(F)(F)CC[C@H]1N1Cc2ccc(-c3nnc(C(F)F)o3)cc2C1=O [Example 470, N-((1R,2R)-2-(6-(5-(difluoromethyl)-1,3,4-oxadiazol-2-yl)-1-oxo-1,3-dihydro-2H-isoindol-2-yl)-5,5-difluorocyclohexyl)-2,2-difluoropropanamide]
20 | 100 | Cn1cc(-c2cc(F)nc(F)c2)c(N2Cc3ccc(-c4nnc(C(F)F)o4)cc3C2=O)n1 [Example 471, 6-(5-(difluoro-methyl)-1,3,4-oxadiazol-2-yl)-2-(4-(2,6-difluoro-pyridin-4-yl)-1-methyl-1H-pyrazol-3-yl) isoindolin-1-one]
21 | 99 | O=C1c2cc(-c3nnc(C(F)F)o3)ccc2CN1c1ccnn1-c1ccc(F)cc1 [Example 473, 6-(5-(difluoro-methyl)-1,3,4-oxadiazol-2-yl)-2-(1-(4-fluoro-phenyl)-1H-pyrazol-5-yl) isoindolin-1-one]
22 | 99 | Cn1cc(C2=CCC(F)(F)CC2)c(N2Cc3ccc(-c4nnc(C(F)F)o4)cc3C2=O)n1 [Example 474, 2-(4-(4,4-difluorocyclo-hex-1-en-1-yl)-1-methyl-1H-pyrazol-3-yl)-6-(5-(difluoro-methyl)-1,3,4-oxadiazol-2-yl) isoindolin-1-one]
23 | 95 | COc1ccc(N2Cc3ccc(-c4nnc(C(F)F)o4)cc3C2=O)c(Br)c1 [Example 477, 2-(2-bromo-4-methoxy-phenyl)-6-(5-(difluoro-methyl)-1,3,4-oxadiazol-2-yl) isoindolin-1-one]
24 | 101 | Cn1cc(C2CCC(F)(F)CC2)c(N2Cc3ccc(-c4nnc(C(F)F)o4)cc3C2=O)n1 [Example 480, 2-(4-(4,4-difluorocyclo-hexyl)-1-methyl-1H-pyrazol-3-yl)-6-(5-(difluoro-methyl)-1,3,4-oxadiazol-2-yl) isoindolin-1-one]
25 | 98 | Cn1cc(-c2cccc3ccnn23)c(N2Cc3ccc(-c4nnc(C(F)F)o4)cc3C2=O)n1 [Example 481, 6-(5-(difluoro-methyl)-1,3,4-oxadiazol-2-yl)-2-(1-methyl-4-(pyrazolo[1,5-a]pyridin-7-yl)-1H-pyrazol-3-yl)isoindolin-1-one]
